Measurements reported in patent US20080194492A1, “Plant Extracts for the Treatment of Incresed Bone Resorption” (priority 2003, published 2008).
Entries after “also recorded” stand apart in the source; their conditions may differ.

System: osteoclasts of new-born rats
Assay: osteoclast pit assay (in vitro resorption activity of osteoclasts on ivory slices)
Assay type: cell-based, rat
Conditions: for magnitude of the inhibition when PTH is added compared with without (in words): PTH 10^−8 M added to cultures; for inhibition of osteoclast resorption activity in vitro (in words): osteoclast pit assay, dose not given
Procedure: It will be appreciated that the osteoclast pit assay is a well established in vitro model of bone resorption and readily known to one skilled in the art. Briefly, medium containing a sample to be tested, e.g. 30 mg or less of freeze-dried hydrophilic fraction A per ml, is added to osteoclasts of new-born rats settled on ivory slices. After 24 hours of incubation, the tartrate-resistant acid phosphatase positive multi-nucleated cells, i.e. osteoclasts, are counted. Subsequently, the number of resorption pits is determined. […] For the analysis of statistical significance, the ratios of the treated groups±their respective SEMs are compared to the 95% confidence interval of the SEM of the negative control. […] The inhibitory effect on osteoclasts is assessed by counting the osteoclast resorption pits on the ivory slice. […] To assess in vitro the bone resorbing inhibitory activity, the osteoclast pit assay is used. Medium containing 30 mg or less of freeze-dried fraction per ml is added to osteoclasts of new-born rats settled on ivory slices. After 24 hours of incubation, the tartrate-resistant acid phosphatase positive multi-nucleated cells, i.e. osteoclasts, are counted. Subsequently, the number of resorption pits is determined. […] For the analysis of statistical significance, the ratios of the treated groups±their respective SEMs are compared to the 95% confidence interval of the SEM of the negative control. • a) TLC-Screening and Yields of the RP-MPLC Fractionations. Bioassay (in vitro assessment of osteoclast activity). Osteoclasts were isolated from femora and tibiae of 2-day-old rats and settled for 40 min onto 4×4 mm ivory slices used as the mineralized substrate. After washing off non-adherent cells, individual slices were transferred to 48-well tissue culture plates and incubated for 24 h at 37° C. in a 5% CO2/air atmosphere (14;15) in medium containing 10% fetal bovine serum (FBS) with or without the material to be tested. The concentration of bicarbonate in the MEM Earle's medium was reduced to 15 mM by addition of 12M HCl. In each experiment calcitonin (salmon calcitonin, Novartis Pharma, Basel, Switzerland) was added as positive control at the concentration of 10^-11 M or 10^-12 M. In one experiment parathyroid hormone (PTH; bovine 1-34, Bachem, Bubendorf, Switzerland) was added at the concentration of 10^-8 M, in order to stimulate bone resorption. For each material to be tested 8 slices were used, for the untreated control 2×8 slices were used. After fixation osteoclasts were stained for tartrate-resistant acid-phosphatase (TRAP) (kit 386-A, Sigma, Buchs, Switzerland) and were counted blinded as TRAP positive (TRAP+) multinucleated (more than 2 nuclei) cells (MNC). After removing the cells, the slices were sputter coated with gold and the resorption pits counted blinded in a process described in Vitté, C.; Fleisch, H.: Guenther, H. L. Bisphosphonates induce osteoblasts to secrete an inhibitor of osteoclast-mediated resorption. Endocrinology 1996, 137, 2324-2333. Osteoclastic resorption activity is calculated as the ratio: resorption pits/TRAP+MNC.

Compound	activity on osteoclast resorption (in words) (0.53 mg/mL, i.e. 1.7 mM GPCS)	Pits/TRAP+ cells ± SEM (0.53 mg/mL, neg. control 0.739 ± 0.138)	inhibition of osteoclast resorption activity (in words) (2 mM)	resorption activity of osteoclasts (in words) (2, 4 and 8 mM, with or without PTH 10^−8 M (FIG. 4))	magnitude of the inhibition when PTH is added compared with without (in words)	minimal effective dose (cultures not stimulated with PTH)	minimal effective dose, graphical interpolation from FIG. 4 (cultures stimulated with PTH)	inhibition of osteoclast resorption activity in vitro (in words)	inhibition of osteoclast resorption activity in vitro (in words) (listed as Fraction A 1-4C)	inhibition of osteoclast resorption activity in vitro (in words) (listed as Fraction A1-4C)	inhibition of osteoclast resorption activity in vitro (in words) (listed as fraction A1-4C)	Pits/TRAP+ cells ± SEM (10^−12 M, 24 h, neg. control 0.489 ± 0.128)	Pits/TRAP+ cells ± SEM (10^−12 M, neg. control 0.739 ± 0.138)
C/C=C/[S+]([O-])C[C@H](NC(=O)CC[C@H](N)C(=O)O)C(=O)O (relative stereo) [A1-4C, γ-L-glutamyl-trans-S-1-propenyl-L-cysteine sulfoxide]	active	0.325 ± 0.108	not significant	inhibits the resorption activity of osteoclasts dose-dependently	somewhat smaller	around 2 mM	around 3 mM	only active fraction	inhibited osteoclast activity nearly as strong as fraction A 1-4	inhibits osteoclast activity similar to fraction A1-4	significantly (p<0.5) inhibit bone resorption; also recorded: inhibiting osteoclast activity		
CT: salmon calcitonin, Novartis Pharma, positive control [reference compound]					somewhat smaller							0.061 ± 0.063	0.116 ± 0.030
